According to patent US20170303574A1, “COMPOUNDS, COMPOSITIONS, AND METHODS FOR MODULATING SWEET TASTE” (Chromocell Corporation, priority 2014, published 2017):
Marks after values point to notes of the source that are not given here.

Columns and labels:
Type in all cases: in vivo, humans
[1] = tested on: perception of sweet taste of high fructose cornsyrup (HFCS); assay: 2AFC assessment of increase in perceived sweetness of HFCS solution; conditions: for Compound concentration with positive 2AFC results: in 5brix HFCS test sample; for Fold increase in perceived sweetness: positive control concentration surpassed divided by test sample concentration (5brix HFCS), approximate; for Sweetener Concentration of positive control surpassed by test sample: test sample 5brix HFCS plus compound, 2AFC sip and spit, panelists n≧15
Description: Effect of test compounds on the perception of sweet taste of high fructose cornsyrup (HFCS) two-alternative forced choice method (2AFC). The effect of the test compounds on the perception of the sweet taste of an aqueous solution of sweetener in humans was evaluated using a two-alternative forced choice “sip and spit” method (2AFC). The aqueous sweetener solutions were prepared by adding sucrose equivalent (SE) quantities of high fructose corn syrup (HFCS) (by weight), to water to achieve the desired concentration. The aqueous solutions ranged in pH from pH 2.5-pH 7. Compounds of the invention were first prepared as a 500-fold concentrated stock solution in 100% ethanol. These concentrated stocks were then added to the aqueous sweetener solutions to result in a final ethanol concentration of 0.2%. The control (positive and negative) samples were also normalized to 0.2% ethanol. This level of ethanol was not seen to contribute any perceived sweetness. The 2AFC test used for compound evaluation was a double blinded and randomized test where taste panelists (n≧15) evaluate a pair of sweetener solutions at a time—one sample contains aqueous sweetener solution plus compound (i.e. test) while the other contains aqueous sweetener solution at higher concentration without compound (i.e. positive control). Each test sample was compared against a positive control. For example, if the test sample contained 1× sweetener concentration with compound (e.g. 5brix HFCS with compound), the positive control sample contained a 1.1× sweetener concentration (e.g. 5.5brix HFCS without compound). […] Panelists were instructed not to eat or drink (except water) for at least 1 hour before the test. During the test, panelists were instructed to sip each sample, swirl it around their mouth and then expectorate. After tasting each sample in the pair, panelists were instructed to record the sample that is “sweeter” in taste. Panelists cleansed their palates by rinsing with water, eating a cracker and waiting for an interval of about 5 minutes. All samples were tasted at ambient temperatures. Data were analyzed using binomial probabilities. Approximate levels of sweetness enhancement in column 5 of Table 2 were calculated as follows: Approximate levels of sweetness enhancement=Sweetener concentration of positive control surpassed by the test sample, divided by sweetener concentration for compound-containing sample (e.g.1.3×=6.5brix HFCS/5brix HFCS).

[2] = tested on: perception of non-sweet taste attributes (such as bitterness); assay: Descriptive analysis (DA) panel: non-sweet taste attributes in lemon lime matrix (spider plots); conditions: lemon-lime matrix sweetened with HFCS, pH 7
Description: The effect of the test compound on the perception of non-sweet taste attributes (such as bitterness) in a flavored aqueous environment, in the presence of carbohydrate sweeteners, was evaluated using a descriptive analysis methodology with a group of trained panelists, as follows. This occurred as part of DA assessment described previously in Example 3.
The trained panel was then used for a descriptive analysis assessment for Compound 2 and Compound 5 in lemon lime flavored matrix, sweetened with high fructose corn syrup (HFCS), at a test dose of 50 ppm and 20 ppm, respectively.
(§1) All control and variant samples were prepared as described in Example 3. Both control (flavored sweetener solutions without compound) and variant (flavored sweetener solutions with compound) samples were blinded and randomized. Samples were presented in monadic order and panelists were instructed to sip the sample, swirl it in their mouths and expectorate. A total of 7 attributes including sweet, bitter, sour, licorice and thickness were assessed for each sample. After each sample assessment, panelists performed a standard palate cleansing protocol, and observed an inter-sample interval time (ISI). All samples were evaluated at ambient temperatures.
Data was collected and exported electronically utilizing FIZZ sensory software. […]

[3] = tested on: perception of the sweet taste in a flavored aqueous environment; assay: Descriptive analysis (DA) panel: sweetness enhancement in HFCS sweetened lemon lime matrix; conditions: for Fold enhancement of sweetness perception as compared to control sample: vs negative control; for Perceived sweetness (spider plot, vs control sweetener solution): lemon-lime matrix sweetened with HFCS, pH 7
Description: The effect of the test compound on the perception of the sweet taste in a flavored aqueous environment, in the presence of carbohydrate sweeteners, was evaluated using a descriptive analysis methodology with a group of trained panelists, as follows.
The panel used in this example was trained to reference sweet attributes in an absolute manner, such that a particular concentration of sweetener is always measured by the panelists at the same point using a 15 cm line scale where each cm represents a 1% increase in sucrose to cover the range of 0% to 15% sucrose. For the rest of the attributes, the panel was trained using a hybrid approach between descriptive analysis methods well-known to those skilled in the art.
The trained panel was then used for a descriptive analysis assessment for Compound 2 and Compound 5 in flavored lemon lime matrix. Compound 2 was assessed at a dose of 50 ppm and Compound 5 was assessed at a dose of 20 ppm for sweetness enhancement in high fructose corn syrup (HFCS) sweetened lemon lime matrix.
The flavored sweetener solutions were prepared by adding sucrose equivalent quantities of HFCS (by weight), to lemon lime matrix to achieve the desired concentration. Compound was first prepared as a 500-fold concentrated stock solution in 100% ethanol. The concentrated stocks were then added to the flavored sweetener solutions to result in a final ethanol concentration of 0.2%. The control (positive and negative) samples were also normalized to 0.2% ethanol. This level of ethanol was not seen to contribute any perceived sweetness
as §1, with “Both” for “All control and variant samples were prepared as described in Example 3. Both”, “sample. For the sweet attribute, panelists made an absolute scoring on a 15 cm line scale where each cm represents a 1% increase in sucrose to cover the range of 0% to 15% sucrose.” for “sample.”
Data was collected and exported electronically utilizing FIZZ sensory software. Data analysis was conducted using SENPAQ version 5.0 software that uses tools such as ANOVA, Fisher's LSD, correlation to determine panel performance as well as significant differences between samples and attributes.
The letter “a” indicates significant differences among the samples at 95% confidence level. Fold enhancement (increase in perceived sweetness) was calculated by dividing the DA panel average intensity score observed for a variant sample by that observed for the negative control sample.

[4] = Compound 5 @ 20 ppm in 6.67brix HFCS lemon lime matrix
[5] = Compound 2 @ 50 ppm in 7.7brix HFCS lemon lime matrix

SMILES | Compound concentration with positive 2AFC results [1] [ppm] | Fold increase in perceived sweetness [1] [X] | Sweetener Concentration of positive control surpassed by test sample [1] [brix HFCS] | Other attributes including astringent, licorice and bitter (spider plot, vs control) [2] | Average Sweetness Intensity Score w/ ANOVA (on 15 cm scale) [3, 4] | Fold enhancement of sweetness perception as compared to control sample [3, 4] [X] | Perceived sweetness (spider plot, vs control sweetener solution) [3] | Average Sweetness Intensity Score w/ ANOVA (on 15 cm scale) [3, 5] | Fold enhancement of sweetness perception as compared to control sample [3, 5] [X]
COc1ccc(C2CCc3ccc(O)c(C)c3O2)cc1O (racemic) [Compound 1, 2-(3-hydroxy-4-methoxyphenyl)-8-methylchroman-7-ol] | 35 | >1.2 | 6 | – | – | – | – | – | –
COc1ccc(C2CCc3cc(C)c(O)cc3O2)cc1O (racemic) [Compound 4, 2-(3-hydroxy-4-methoxyphenyl)-6-methylchroman-7-ol] | 20 | >1.3 | 6.5 | – | – | – | – | – | –
COc1ccc(C2CCc3cc(C)c(O)cc3O2)cc1O (single isomer, unassigned; (-)) [Compound 5, (−)-2-(3-hydroxy-4-methoxyphenyl)-6-methylchroman-7-ol] | 20 | >1.5 | 7.5 | observed to be significant | 9.7^a | 1.47 | significant increase in perceived sweetness | – | –
COc1ccc([C@@H]2CCc3ccc(O)c(C)c3O2)cc1O [Compound 2, (S)-2-(3-hydroxy-4-methoxyphenyl)-8-methylchroman-7-ol] | 50 | >1.3 | 6.5 | observed to be significant | – | – | significant increase in perceived sweetness | 10.3^a | 1.43
